Laboratory results reported in the Kinase Knowledgebase extract (Sharma et al. 2016).

Biological target: EGFR (human) (UniProt P00533)
Sequence (P00533 whole entry, looked up): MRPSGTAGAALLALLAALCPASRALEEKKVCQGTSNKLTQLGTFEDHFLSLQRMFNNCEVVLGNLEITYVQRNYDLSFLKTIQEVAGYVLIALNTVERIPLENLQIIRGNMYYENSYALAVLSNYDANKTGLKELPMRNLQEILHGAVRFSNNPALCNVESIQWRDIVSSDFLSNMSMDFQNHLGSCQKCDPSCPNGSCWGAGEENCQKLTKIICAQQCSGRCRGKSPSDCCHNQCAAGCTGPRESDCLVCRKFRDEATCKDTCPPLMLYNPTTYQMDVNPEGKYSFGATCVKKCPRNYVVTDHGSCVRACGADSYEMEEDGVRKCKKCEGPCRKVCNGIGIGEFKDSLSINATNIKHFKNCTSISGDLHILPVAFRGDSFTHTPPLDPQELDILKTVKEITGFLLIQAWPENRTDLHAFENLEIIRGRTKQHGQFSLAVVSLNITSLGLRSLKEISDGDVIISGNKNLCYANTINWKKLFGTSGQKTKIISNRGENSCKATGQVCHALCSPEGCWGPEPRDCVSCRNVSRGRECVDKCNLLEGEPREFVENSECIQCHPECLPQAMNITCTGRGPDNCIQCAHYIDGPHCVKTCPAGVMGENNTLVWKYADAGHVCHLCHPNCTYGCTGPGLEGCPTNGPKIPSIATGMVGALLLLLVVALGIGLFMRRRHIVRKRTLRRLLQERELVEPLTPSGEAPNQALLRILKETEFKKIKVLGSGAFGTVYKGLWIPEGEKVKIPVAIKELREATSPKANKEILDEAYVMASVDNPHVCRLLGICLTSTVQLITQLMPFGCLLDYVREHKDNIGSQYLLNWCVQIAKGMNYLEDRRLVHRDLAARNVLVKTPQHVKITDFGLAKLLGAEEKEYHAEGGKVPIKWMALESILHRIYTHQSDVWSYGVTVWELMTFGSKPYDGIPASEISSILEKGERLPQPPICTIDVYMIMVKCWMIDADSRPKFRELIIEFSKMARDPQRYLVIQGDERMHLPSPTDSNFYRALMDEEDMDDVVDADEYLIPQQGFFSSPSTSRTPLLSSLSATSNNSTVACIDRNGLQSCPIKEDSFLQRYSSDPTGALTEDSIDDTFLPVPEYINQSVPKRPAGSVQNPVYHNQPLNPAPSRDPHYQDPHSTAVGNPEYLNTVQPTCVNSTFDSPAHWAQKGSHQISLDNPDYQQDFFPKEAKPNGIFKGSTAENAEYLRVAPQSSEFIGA

COc1cc(N2CCN(CCS(C)(=O)=O)CC2)c(C)cc1Nc1nccc(-c2sc(C3CCOCC3)nc2-c2cccc(NS(=O)(=O)c3c(F)cccc3F)c2F)n1
IC50: < 100 nM

CC(C)c1nc(-c2cccc(NS(=O)(=O)c3c(F)cccc3F)c2)c(-c2ccnc(Nc3ccc(N4CCCNCC4)nc3)n2)s1
IC50: < 100 nM

COc1cc(N2CCN(CCS(C)(=O)=O)CC2)c(C)cc1Nc1nccc(-c2sc(C(C)C)nc2-c2cccc(NS(=O)(=O)c3c(F)cccc3F)n2)n1
IC50: < 100 nM

CC(C)c1nc(-c2cccc(NS(=O)(=O)c3ccccc3)c2)c(-c2ccnc(Nc3ccc(F)c(N4CCN(CCS(C)(=O)=O)CC4)c3)n2)s1
IC50: 100 to 1000 nM

CC(C)c1nc(-c2cccc(NS(=O)(=O)c3c(F)cccc3F)c2)c(-c2ccnc(Nc3ccc(N4CC[C@@H](O)C4)nc3)n2)s1
IC50: 100 to 1000 nM

CC(C)c1nc(-c2cccc(NS(=O)(=O)c3c(F)cccc3F)c2)c(-c2ccnc(Nc3cccc(N4CCN(C)CC4)c3)n2)s1
IC50: < 100 nM

O=S(=O)(Nc1cc(-c2nc(N3CCOCC3)sc2-c2ccnc(Nc3ccc(N4CCOCC4)nc3)n2)ccc1F)c1c(F)cccc1F
IC50: 100 to 1000 nM

CS(=O)(=O)CCN1CCN(c2ccc(Nc3nccc(-c4oc(N5CCCC5)nc4-c4cccc(NS(=O)(=O)c5c(F)cccc5F)c4F)n3)cc2F)CC1
IC50: 100 to 1000 nM

COc1ccc(Nc2nccc(-c3sc(C(C)C)nc3-c3cccc(NS(=O)(=O)c4ccccc4)c3)n2)cc1N1CCN(CCC#N)CC1
IC50: < 100 nM

CN(C)c1nc(-c2ccc(F)c(NS(=O)(=O)c3c(F)cccc3F)c2)c(-c2ccnc(Nc3ccc(N4CCN(S(C)(=O)=O)CC4)nc3)n2)s1
IC50: 100 to 1000 nM

COc1cc(N2CCN(CCS(C)(=O)=O)CC2)c(C)cc1Nc1nccc(-c2sc(C(C)C)nc2-c2cccc(NS(=O)(=O)c3cccnc3)c2)n1
IC50: 100 to 1000 nM

CCNc1nc(-c2cccc(NS(=O)(=O)c3ccccc3)c2)c(-c2ccnc(Nc3ccc(OCCN4CCCC4)c(F)c3)n2)s1
IC50: < 100 nM

CCc1nc(-c2cccc(NS(=O)(=O)c3ccccc3)c2)c(-c2ccnc(Nc3ccc(OC)c(N4CCN(CCS(C)(=O)=O)CC4)c3)n2)s1
IC50: 100 to 1000 nM

O=S(=O)(Nc1cccc(-c2ncsc2-c2ccnc(Nc3ccc(N4CCOCC4)nc3)n2)c1)c1c(F)cccc1F
IC50: 100 to 1000 nM

O=S(=O)(Nc1cccc(-c2nc(N3CCOCC3)sc2-c2ccnc(Nc3ccc(N4CCOCC4)nc3)n2)c1F)c1c(F)cccc1F
IC50: 100 to 1000 nM

COc1cc(N2CCN(CCS(C)(=O)=O)CC2)c(C)cc1Nc1nccc(-c2sc(N3CCOCC3)nc2-c2cccc(NS(=O)(=O)c3c(F)cccc3F)c2)n1
IC50: < 100 nM

COc1cc(N2CCN(CCS(C)(=O)=O)CC2)c(C)cc1Nc1nccc(-c2sc(N)nc2-c2cccc(NS(=O)(=O)c3c(F)cccc3F)c2)n1
IC50: 100 to 1000 nM

Nc1nc(-c2ccc(F)c(NS(=O)(=O)c3c(F)cccc3F)c2)c(-c2ccnc(Nc3ccc(N4CCOCC4)nc3)n2)s1
IC50: 100 to 1000 nM

CC(C)c1nc(-c2ccc(F)c(NS(=O)(=O)c3c(F)cccc3F)c2)c(-c2ccnc(Nc3ccc(N4CCN5CCOC[C@H]5C4)nc3)n2)s1
IC50: 100 to 1000 nM

CC(C)c1nc(-c2cccc(NS(=O)(=O)c3cccnc3)c2)c(-c2ccnc(Nc3ccc(N4CCOCC4)nc3)n2)s1
IC50: 100 to 1000 nM

CCNc1nc(-c2cccc(NS(=O)(=O)c3c(F)cccc3F)c2)c(-c2ccnc(Nc3cc(C)c(N4CCN(CCS(C)(=O)=O)CC4)cc3OC)n2)s1
IC50: < 100 nM

COc1cc(N2CCC3(CC2)CCN(S(C)(=O)=O)CC3)c(C)cc1Nc1nccc(-c2sc(C(C)C)nc2-c2cccc(NS(=O)(=O)c3c(F)cccc3F)c2F)n1
IC50: 100 to 1000 nM

CC(C)c1nc(-c2cccc(NS(=O)(=O)c3c(F)cccc3F)c2)c(-c2ccnc(Nc3ccc(OC4CCN(CCS(C)(=O)=O)CC4)c(F)c3)n2)s1
IC50: 100 to 1000 nM

CC(C)c1nc(-c2cccc(NS(=O)(=O)c3c(F)cccc3F)c2)c(-c2ccnc(Nc3ccc(N4CCN(CCF)CC4)c(F)c3)n2)s1
IC50: 100 to 1000 nM

COc1cc(N2CCN(CCS(C)(=O)=O)CC2)c(C)cc1Nc1nccc(-c2oc(N3CCCC3)nc2-c2cccc(NS(=O)(=O)c3c(F)cccc3F)c2)n1
IC50: 100 to 1000 nM

COc1cc2c(cc1Nc1nccc(-c3sc(C(C)C)nc3-c3cccc(NS(=O)(=O)c4c(F)cccc4F)c3)n1)N(C(=O)CN(C)C)CC2
IC50: 100 to 1000 nM

COc1cc(N2CCN(CCS(C)(=O)=O)CC2)c(C)cc1Nc1nccc(-c2sc(C(C)C)nc2-c2cccc(NS(=O)(=O)c3c(F)cccc3F)c2)n1
IC50: < 100 nM

CC(C)c1nc(-c2ccc(F)c(NS(=O)(=O)c3c(F)cccc3F)c2)c(-c2ccnc(Nc3ccc(N4CCOCC4)nc3)n2)s1
IC50: 100 to 1000 nM

CC(C)c1nc(-c2cccc(NS(=O)(=O)c3c(F)cccc3F)c2)c(-c2ccnc(Nc3ccc(N4CCOCC4)nc3)n2)s1
IC50: 100 to 1000 nM

COc1ccc(Nc2nccc(-c3sc(C(C)C)nc3-c3cccc(NS(=O)(=O)c4c(F)cccc4F)c3)n2)cc1N(C)C
IC50: < 100 nM

CC(C)c1nc(-c2ccc(F)c(NS(=O)(=O)c3c(F)cccc3F)c2)c(-c2ccnc(Nc3ccc(N4CCN(CCF)CC4)c(F)c3)n2)s1
IC50: 100 to 1000 nM

COc1cc(N2CCN(CCS(C)(=O)=O)CC2)c(C)cc1Nc1nccc(-c2sc(CC(C)C)nc2-c2cccc(NS(=O)(=O)c3c(F)cccc3F)c2)n1
IC50: < 100 nM

CN1CCN(c2nc(-c3ccc(F)c(NS(=O)(=O)c4c(F)cccc4F)c3)c(-c3ccnc(Nc4ccc(N5CCOCC5)nc4)n3)s2)CC1
IC50: 100 to 1000 nM

COc1cc(N2CCN(CCS(C)(=O)=O)CC2)c(C)cc1Nc1nccc(-c2scnc2-c2cccc(NS(=O)(=O)c3c(F)cccc3F)c2)n1
IC50: < 100 nM

CC(C)c1nc(-c2cccc(NS(=O)(=O)c3c(F)cccc3F)c2)c(-c2ccnc(Nc3ccc(N4CCN(CCO)CC4)nc3)n2)s1
IC50: < 100 nM

Nc1nc(-c2cccc(NS(=O)(=O)c3c(F)cccc3F)c2)c(-c2ccnc(Nc3ccc(N4CCOCC4)nc3)n2)s1
IC50: 100 to 1000 nM

COc1cc(OC2CCN(CCS(C)(=O)=O)CC2)c(C)cc1Nc1nccc(-c2sc(C(C)C)nc2-c2cccc(NS(=O)(=O)c3c(F)cccc3F)c2)n1
IC50: < 100 nM

COc1cc(N2CCN(CCS(C)(=O)=O)CC2)c(C)cc1Nc1nccc(-c2sc(C(C)C)nc2-c2cc(NS(=O)(=O)c3c(F)cccc3F)ccc2F)n1
IC50: 100 to 1000 nM

Cc1cc(Nc2nccc(-c3sc(C(C)C)nc3-c3ccc(F)c(NS(=O)(=O)c4c(F)cccc4F)c3)n2)ccn1
IC50: 100 to 1000 nM

COc1cc(N2CCN(CCS(C)(=O)=O)CC2)c(C)cc1Nc1nccc(-c2sc(C(C)C)nc2-c2cccc(NS(=O)(=O)c3cccs3)c2)n1
IC50: < 100 nM

CC(C)c1nc(-c2cccc(NS(=O)(=O)c3c(F)cccc3F)c2)c(-c2ccnc(Nc3ccc(N4CCOCC4)c(C(=O)O)c3)n2)s1
IC50: 100 to 1000 nM

COc1cc(N2CCC(N3CCN(CCS(C)(=O)=O)CC3)CC2)ccc1Nc1nccc(-c2sc(C(C)C)nc2-c2cccc(NS(=O)(=O)c3c(F)cccc3F)c2)n1
IC50: < 100 nM

CC(C)c1nc(-c2ccc(F)c(NS(=O)(=O)c3ccccc3C#N)c2)c(-c2ccnc(Nc3ccc(N4CCOCC4)nc3)n2)s1
IC50: 100 to 1000 nM

COc1cc(N2CCN(CCS(C)(=O)=O)CC2)c(C)cc1Nc1nccc(-c2sc(C)nc2-c2cccc(NS(=O)(=O)c3c(F)cccc3F)c2)n1
IC50: < 100 nM

O=S(=O)(Nc1cc(-c2nc(N3CCOCC3)sc2-c2ccnc(Nc3ccc4c(c3)OCCO4)n2)ccc1F)c1c(F)cccc1F
IC50: 100 to 1000 nM

COc1cc(OCCN2CCOCC2)c(C)cc1Nc1nccc(-c2sc(C(C)C)nc2-c2cccc(NS(=O)(=O)c3c(F)cccc3F)c2F)n1
IC50: 100 to 1000 nM

CC(=O)N1CCc2cc(Nc3nccc(-c4sc(C(C)C)nc4-c4cccc(NS(=O)(=O)c5ccccc5)c4)n3)ccc21
IC50: 100 to 1000 nM

CCNc1nc(-c2ccc(F)c(NS(=O)(=O)c3c(F)cccc3F)c2)c(-c2ccnc(Nc3ccc(N4CCOCC4)nc3)n2)s1
IC50: 100 to 1000 nM

Cc1ccc(-c2nc(C(C)C)sc2-c2ccnc(Nc3ccc(N4CCOCC4)nc3)n2)cc1NS(=O)(=O)c1c(F)cccc1F
IC50: 100 to 1000 nM

CCc1nc(-c2ccc(F)c(NS(=O)(=O)c3ccccc3)c2)c(-c2ccnc(Nc3ccc(N4CCN(C(C)C)CC4)cc3OC)n2)s1
IC50: 100 to 1000 nM

O=S(=O)(Nc1cccc(-c2nc(N3CCCC3)sc2-c2ccnc(Nc3ccc(N4CCN(CCF)CC4)c(F)c3)n2)c1)c1c(F)cccc1F
IC50: < 100 nM

CC(C)c1nc(-c2cccc(NS(=O)(=O)c3c(F)cccc3F)c2)c(-c2ccnc(Nc3ccc(N4CCN(C(C)C)CC4)cc3O)n2)s1
IC50: 100 to 1000 nM

CC(C)c1nc(-c2cccc(NS(=O)(=O)c3c(F)cccc3F)c2)c(-c2ccnc(Nc3ccc(N4CCN(CCS(C)(=O)=O)CC4)c(F)c3)n2)s1
IC50: 100 to 1000 nM

CC(C)c1nc(-c2cccc(NS(=O)(=O)c3ccccc3)c2)c(-c2ccnc(Nc3ccc(N4CCOCC4)nc3)n2)s1
IC50: 100 to 1000 nM

COc1cc(N2CCN(CCS(C)(=O)=O)CC2)c(C)cc1Nc1nccc(-c2sc(C3CCOCC3)nc2-c2cccc(NS(=O)(=O)c3c(F)cccc3F)c2)n1
IC50: < 100 nM

CCOc1ccc(Nc2nccc(-c3sc(N4CCCC4)nc3-c3cccc(NS(=O)(=O)c4c(F)cccc4F)c3)n2)cc1N1CCN(CCS(C)(=O)=O)CC1
IC50: < 100 nM

CC(=O)N1CCN(c2ccc(Nc3nccc(-c4sc(C(C)C)nc4-c4cccc(NS(=O)(=O)c5cn(C)cn5)c4)n3)cn2)CC1
IC50: < 100 nM

COc1cc(N2CCN(CCS(C)(=O)=O)CC2)c(C)cc1Nc1nccc(-c2sc(C3CC3)nc2-c2cccc(NS(=O)(=O)c3c(F)cccc3F)c2)n1
IC50: 100 to 1000 nM

CC(=O)N1CCN(c2ccc(Nc3nccc(-c4sc(C(C)C)nc4-c4cccc(NS(=O)(=O)C5CCCCC5)c4)n3)cn2)CC1
IC50: 100 to 1000 nM

CCc1nc(-c2cccc(CNS(=O)(=O)c3ccccc3)c2)c(-c2ccnc(Nc3ccc(N4CCN(CCS(C)(=O)=O)CC4)c(F)c3)n2)s1
IC50: 100 to 1000 nM

CC(C)c1nc(-c2cccc(NS(=O)(=O)c3c(F)cccc3F)c2)c(-c2ccnc(Nc3ccc(N4CCOCC4)c(F)c3)n2)o1
IC50: 100 to 1000 nM

COc1cc(Nc2nccc(-c3sc(C(C)C)nc3-c3cccc(NS(=O)(=O)c4c(F)cccc4F)c3)n2)cc(OC)c1OC1CCN(CCS(C)(=O)=O)CC1
IC50: < 100 nM

CC(C)c1nc(-c2cc(F)cc(NS(=O)(=O)c3c(F)cccc3F)c2)c(-c2ccnc(Nc3ccc(N4CCOCC4)nc3)n2)s1
IC50: 100 to 1000 nM

CC(=O)N1CCN(c2ccc(Nc3nccc(-c4sc(C(C)C)nc4-c4cccc(NS(=O)(=O)c5ccccc5F)c4)n3)cn2)CC1
IC50: < 100 nM

COc1cc(N2CCN(CCF)CC2)ccc1Nc1nccc(-c2sc(C(C)C)nc2-c2cccc(NS(=O)(=O)c3c(F)cccc3F)c2)n1
IC50: 100 to 1000 nM

CCc1nc(-c2cccc(CNS(=O)(=O)c3ccccc3)c2)c(-c2ccnc(Nc3ccc(N4CCN(C(C)=O)CC4)nc3)n2)s1
IC50: 100 to 1000 nM
